Bridge positions count the residues as written; N and C are the ends. Square brackets hold non-standard residues; d marks the D form. Peptide text beside a SMILES is read from it. * marks the point of attachment. Ala(morpholin-4-yl) = N[C@@H](CN1CCOCC1)C(=O)O; Phe(4-COOH) = N[C@@H](Cc1ccc(C(=O)O)cc1)C(=O)O; Bip = N[C@@H](Cc1ccc(-c2ccccc2)cc1)C(=O)O; Phe(3-Me) = Cc1cccc(C[C@H](N)C(=O)O)c1; NH(CH2)12COOH = O=C(O)CCCCCCCCCCCCN*; Val(3-OH) = CC(C)(O)[C@H](N)C(=O)O; 4Pal = N[C@@H](Cc1ccncc1)C(=O)O; Cha = N[C@@H](CC1CCCCC1)C(=O)O; Carboxymethyl = O=C(O)C*; Nle = CCCC[C@H](N)C(=O)O; Orn = NCCC[C@H](N)C(=O)O; Dab = NCC[C@H](N)C(=O)O; AEEA = NCCOCCOCC(=O)O
The compounds below were run against T1, PD-1/PD-L1 interaction (PE-labeled human PD-L1-Ig binding to Jurkat cell line over-expressing human PD-1) (Homo sapiens, UniProt Q15116) (assay: Jurkat-PD-1 Cell Binding High-Content Screening Assay (CBA)). Details: Jurkat cell line over-expressing human PD-1; PE-labeled PD-L1-Ig 20 nM final; read-out: Jurkat hPD1-PDL1 IC50.
T1 construct: expressed in transfected cells; host or cells: Jurkat
T1 sequence (Q15116 25-288): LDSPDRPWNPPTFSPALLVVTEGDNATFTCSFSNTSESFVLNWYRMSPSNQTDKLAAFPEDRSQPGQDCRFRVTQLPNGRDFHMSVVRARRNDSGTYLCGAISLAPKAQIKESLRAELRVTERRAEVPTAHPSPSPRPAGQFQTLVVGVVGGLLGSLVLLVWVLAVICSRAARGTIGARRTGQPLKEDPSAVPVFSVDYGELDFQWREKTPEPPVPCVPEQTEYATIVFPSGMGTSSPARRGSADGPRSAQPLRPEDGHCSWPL
Type: cell-based
Summary of the method: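 First, compound is added to PD-1-expressing Jurkat cells in serum-containing DMEM and left 2 h at 37° C. Next, PE-conjugated PD-L1-Ig is introduced at 20 nM final concentration for 1 hour. Finally, cells are fixed in 4% paraformaldehyde with Hoechst 33342, washed and imaged.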

Compared with `Cc1cccc(C[C@@H]2NC(=O)[C@H](CC(=O)O)NC(=O)[C@H](Cc3ccc(OCC(=O)O)cc3)NC(=O)[C@H](CCN)NC(=O)CSC[C@@H](C(=O)N[C@@H](CCN)C(=O)NCCOCCOCC(=O)NCCOCCOCC(=O)NCCCCCCCCCCCCC(=O)O)NC(=O)[C@H](CC(=O)O)NC(=O)[C@H](C(C)(C)O)NC(=O)[C@H](CC3CCCCC3)NC(=O)[C@H](Cc3c[nH]cn3)NC(=O)[C@@H](CC(C)C)NC(=O)[C@H](CCCN)NC(=O)[C@H](Cc3ccc(C(=O)O)cc3)NC(=O)[C@H](Cc3ccc(-c4ccccc4)cc3)NC(=O)[C@H](Cc3ccc(C(=O)O)cc3)NC2=O)c1` [Compound 2889] ({CH2CO}-[Dab]Y(Carboxymethyl)D[Phe(3-Me)][Phe(4-COOH)][Bip][Phe(4-COOH)][Orn][dL]H[Cha][Val(3-OH)]DC[Dab][AEEA][AEEA]-{NH(CH2)12COOH}; thioether N-14), `Cc1cccc(C[C@@H]2NC(=O)[C@H](CC(=O)O)NC(=O)[C@H](Cc3ccc(OCC(=O)O)cc3)NC(=O)[C@H](Cc3c[nH]cn3)NC(=O)CSC[C@@H](C(=O)N[C@@H](CCN)C(=O)NCCOCCOCC(=O)NCCOCCOCC(=O)NCCCCCCCCCCCCC(=O)O)NC(=O)[C@H](CO)NC(=O)[C@H](C(C)(C)O)NC(=O)[C@H](CC3CCCCC3)NC(=O)[C@H](CCN)NC(=O)[C@@H](CC(C)C)NC(=O)[C@H](CCCN)NC(=O)[C@H](Cc3ccc(C(=O)O)cc3)NC(=O)[C@H](Cc3ccc(-c4ccccc4)cc3)NC(=O)[C@H](Cc3ccc(C(=O)O)cc3)NC2=O)c1` [Compound 2895] ({CH2CO}-HY(Carboxymethyl)D[Phe(3-Me)][Phe(4-COOH)][Bip][Phe(4-COOH)][Orn][dL][Dab][Cha][Val(3-OH)]SC[Dab][AEEA][AEEA]-{NH(CH2)12COOH}; thioether N-14) is 4.6-fold lower in IC50: 52.4 nM for the first, 11.4 nM for the second. The second is the more potent here.

Going from `Cc1cccc(C[C@@H]2NC(=O)[C@H](CC(=O)O)NC(=O)[C@H](Cc3ccc(C(=O)O)cc3)NC(=O)[C@H](CCN)NC(=O)CSC[C@@H](C(=O)N[C@@H](CCN)C(=O)NCCOCCOCC(=O)NCCOCCOCC(=O)NCCCCCCCCCCCCC(=O)O)NC(=O)[C@H](CO)NC(=O)[C@H](C(C)(C)O)NC(=O)[C@H](CC3CCCCC3)NC(=O)[C@H](Cc3c[nH]cn3)NC(=O)[C@@H](CC(C)C)NC(=O)[C@H](CCCN)NC(=O)[C@H](Cc3ccc(C(=O)O)cc3)NC(=O)[C@H](Cc3ccc(-c4ccccc4)cc3)NC(=O)[C@H](Cc3ccc(C(=O)O)cc3)NC2=O)c1` [Compound 2890] ({CH2CO}-[Dab][Phe(4-COOH)]D[Phe(3-Me)][Phe(4-COOH)][Bip][Phe(4-COOH)][Orn][dL]H[Cha][Val(3-OH)]SC[Dab][AEEA][AEEA]-{NH(CH2)12COOH}; thioether N-14) to `CCCC[C@@H]1NC(=O)CSC[C@@H](C(=O)N[C@@H](CCN)C(=O)NCCOCCOCC(=O)NCCOCCOCC(=O)NCCCCCCCCCCCCC(=O)O)NC(=O)[C@H](CO)NC(=O)[C@H](C(C)(C)O)NC(=O)[C@H](CC2CCCCC2)NC(=O)[C@H](CCN)NC(=O)[C@@H](CC(C)C)NC(=O)[C@H](CCCN)NC(=O)[C@H](Cc2ccc(C(=O)O)cc2)NC(=O)[C@H](Cc2ccc(-c3ccccc3)cc2)NC(=O)[C@H](Cc2ccc(C(=O)O)cc2)NC(=O)[C@H](Cc2cccc(C)c2)NC(=O)[C@H](CC(=O)O)NC(=O)[C@H](Cc2ccc(OCC(=O)O)cc2)NC1=O` [Compound 2891] ({CH2CO}-[Nle]Y(Carboxymethyl)D[Phe(3-Me)][Phe(4-COOH)][Bip][Phe(4-COOH)][Orn][dL][Dab][Cha][Val(3-OH)]SC[Dab][AEEA][AEEA]-{NH(CH2)12COOH}; thioether N-14), the IC50 falls from 31.1 nM to 2.6 nM (12-fold).

`CCCC[C@@H]1NC(=O)CSC[C@@H](C(=O)N[C@@H](CCN)C(=O)NCCOCCOCC(=O)NCCOCCOCC(=O)NCCCCCCCCCCCCC(=O)O)NC(=O)[C@H](CCC(=O)O)NC(=O)[C@H](C(C)(C)O)NC(=O)[C@H](CC2CCCCC2)NC(=O)[C@H](CCN)NC(=O)[C@@H](CC(C)C)NC(=O)[C@H](CCCN)NC(=O)[C@H](Cc2ccc(C(=O)O)cc2)NC(=O)[C@H](Cc2ccc(-c3ccccc3)cc2)NC(=O)[C@H](Cc2ccc(C(=O)O)cc2)NC(=O)[C@H](Cc2cccc(C)c2)NC(=O)[C@H](CC(=O)O)NC(=O)[C@H](Cc2ccc(OCC(=O)O)cc2)NC1=O` [Compound 2892] ({CH2CO}-[Nle]Y(Carboxymethyl)D[Phe(3-Me)][Phe(4-COOH)][Bip][Phe(4-COOH)][Orn][dL][Dab][Cha][Val(3-OH)]EC[Dab][AEEA][AEEA]-{NH(CH2)12COOH}; thioether N-14) and `CCCC[C@@H]1NC(=O)CSC[C@@H](C(=O)N[C@@H](CCN)C(=O)NCCOCCOCC(=O)NCCOCCOCC(=O)NCCCCCCCCCCCCC(=O)O)NC(=O)[C@H](CC(=O)O)NC(=O)[C@H](C(C)(C)O)NC(=O)[C@H](CC2CCCCC2)NC(=O)[C@H](CCN)NC(=O)[C@@H](CC(C)C)NC(=O)[C@H](CCCN)NC(=O)[C@H](Cc2ccc(C(=O)O)cc2)NC(=O)[C@H](Cc2ccc(-c3ccccc3)cc2)NC(=O)[C@H](Cc2ccc(C(=O)O)cc2)NC(=O)[C@H](Cc2cccc(C)c2)NC(=O)[C@H](CC(=O)O)NC(=O)[C@H](Cc2ccc(OCC(=O)O)cc2)NC1=O` [Compound 2893] ({CH2CO}-[Nle]Y(Carboxymethyl)D[Phe(3-Me)][Phe(4-COOH)][Bip][Phe(4-COOH)][Orn][dL][Dab][Cha][Val(3-OH)]DC[Dab][AEEA][AEEA]-{NH(CH2)12COOH}; thioether N-14) are within 1.5-fold of each other in IC50: 26.2 nM for the first, 19.5 nM for the second.

Going from `COc1ccc(C[C@@H]2NC(=O)[C@H](Cc3cccc(C)c3)NC(=O)[C@H](CC(=O)O)NC(=O)[C@H](Cc3ccc(OCC(=O)O)cc3)NC(=O)[C@H](Cc3ccncc3)NC(=O)CSC[C@@H](C(=O)N[C@@H](CCN)C(=O)NCCOCCOCC(=O)NCCOCCOCC(=O)NCCCCCCCCCCCCC(=O)O)NC(=O)[C@H](CO)NC(=O)[C@H](C(C)(C)O)NC(=O)[C@H](CC3CCCCC3)NC(=O)[C@H](CCN)NC(=O)[C@@H](CC(C)C)NC(=O)[C@H](CCCN)NC(=O)[C@H](Cc3ccc(OCC(=O)O)cc3)NC(=O)[C@H](Cc3ccc(-c4ccccc4)cc3)NC2=O)cc1` [Compound 2894] ({CH2CO}-[4Pal]Y(Carboxymethyl)D[Phe(3-Me)]Y(Me)[Bip]Y(Carboxymethyl)[Orn][dL][Dab][Cha][Val(3-OH)]SC[Dab][AEEA][AEEA]-{NH(CH2)12COOH}; thioether N-14) to `Cc1cccc(C[C@@H]2NC(=O)[C@H](CC(=O)O)NC(=O)[C@H](Cc3ccc(OCC(=O)O)cc3)NC(=O)[C@H](CN3CCOCC3)NC(=O)CSC[C@@H](C(=O)N[C@@H](CCN)C(=O)NCCOCCOCC(=O)NCCOCCOCC(=O)NCCCCCCCCCCCCC(=O)O)NC(=O)[C@H](CO)NC(=O)[C@H](C(C)(C)O)NC(=O)[C@H](CC3CCCCC3)NC(=O)[C@H](CCN)NC(=O)[C@@H](CC(C)C)NC(=O)[C@H](CCCN)NC(=O)[C@H](Cc3ccc(OCC(=O)O)cc3)NC(=O)[C@H](Cc3ccc(-c4ccccc4)cc3)NC(=O)[C@H](Cc3ccc(OCC(=O)O)cc3)NC2=O)c1` [Compound 2896] ({CH2CO}-[Ala(morpholin-4-yl)]Y(Carboxymethyl)D[Phe(3-Me)]Y(Carboxymethyl)[Bip]Y(Carboxymethyl)[Orn][dL][Dab][Cha][Val(3-OH)]SC[Dab][AEEA][AEEA]-{NH(CH2)12COOH}; thioether N-14), the IC50 falls from 259 nM to 4.1 nM (63-fold). The second is the more potent here.

Going from `Cc1cccc(C[C@@H]2NC(=O)[C@H](CC(=O)O)NC(=O)[C@H](Cc3ccc(OCC(=O)O)cc3)NC(=O)[C@H](CN3CCOCC3)NC(=O)CSC[C@@H](C(=O)N[C@@H](CCN)C(=O)NCCOCCOCC(=O)NCCOCCOCC(=O)NCCCCCCCCCCCCC(=O)O)NC(=O)[C@H](CO)NC(=O)[C@H](C(C)(C)O)NC(=O)[C@H](CC3CCCCC3)NC(=O)[C@H](CCN)NC(=O)[C@@H](CC(C)C)NC(=O)[C@H](CCCN)NC(=O)[C@H](Cc3ccc(C(=O)O)cc3)NC(=O)[C@H](Cc3ccc(-c4ccccc4)cc3)NC(=O)[C@H](Cc3ccc(C(=O)O)cc3)NC2=O)c1` [Compound 2897] ({CH2CO}-[Ala(morpholin-4-yl)]Y(Carboxymethyl)D[Phe(3-Me)][Phe(4-COOH)][Bip][Phe(4-COOH)][Orn][dL][Dab][Cha][Val(3-OH)]SC[Dab][AEEA][AEEA]-{NH(CH2)12COOH}; thioether N-14) to `Cc1cccc(C[C@@H]2NC(=O)[C@H](CC(=O)O)NC(=O)[C@H](Cc3ccc(OCC(=O)O)cc3)NC(=O)[C@H](CN3CCOCC3)NC(=O)CSC[C@@H](C(=O)N[C@@H](CCN)C(=O)NCCOCCOCC(=O)NCCOCCOCC(=O)NCCCCCCCCCCCCC(=O)O)NC(=O)[C@H](CC(=O)O)NC(=O)[C@H](C(C)(C)O)NC(=O)[C@H](CC3CCCCC3)NC(=O)[C@H](CCN)NC(=O)[C@@H](CC(C)C)NC(=O)[C@H](CCCN)NC(=O)[C@H](Cc3ccc(C(=O)O)cc3)NC(=O)[C@H](Cc3ccc(-c4ccccc4)cc3)NC(=O)[C@H](Cc3ccc(C(=O)O)cc3)NC2=O)c1` [Compound 2899] ({CH2CO}-[Ala(morpholin-4-yl)]Y(Carboxymethyl)D[Phe(3-Me)][Phe(4-COOH)][Bip][Phe(4-COOH)][Orn][dL][Dab][Cha][Val(3-OH)]DC[Dab][AEEA][AEEA]-{NH(CH2)12COOH}; thioether N-14), the IC50 rises from 1.6 nM to 5.4 nM (3.4-fold).

With `Cc1cccc(C[C@@H]2NC(=O)[C@H](CC(=O)O)NC(=O)[C@H](Cc3ccc(OCC(=O)O)cc3)NC(=O)[C@H](CN3CCOCC3)NC(=O)CSC[C@@H](C(=O)N[C@@H](CCN)C(=O)NCCOCCOCC(=O)NCCOCCOCC(=O)NCCCCCCCCCCCCC(=O)O)NC(=O)[C@H](CCC(=O)O)NC(=O)[C@H](C(C)(C)O)NC(=O)[C@H](CC3CCCCC3)NC(=O)[C@H](CCN)NC(=O)[C@@H](CC(C)C)NC(=O)[C@H](CCCN)NC(=O)[C@H](Cc3ccc(C(=O)O)cc3)NC(=O)[C@H](Cc3ccc(-c4ccccc4)cc3)NC(=O)[C@H](Cc3ccc(C(=O)O)cc3)NC2=O)c1` [Compound 2898] ({CH2CO}-[Ala(morpholin-4-yl)]Y(Carboxymethyl)D[Phe(3-Me)][Phe(4-COOH)][Bip][Phe(4-COOH)][Orn][dL][Dab][Cha][Val(3-OH)]EC[Dab][AEEA][AEEA]-{NH(CH2)12COOH}; thioether N-14) the IC50 was 5.5 nM.

From patent publication US20260022142A1, “MACROCYCLIC IMMUNOMODULATORS” (Bristol-Myers Squibb Company, priority 2022, published 2026)
